# Test results taken from patent US6486096B1, “Herbicidal compositions with acylated aminophenylsulfonylureas” (priority 1998, dated 2002).
# Where “and” joins values, the source holds several entries; their conditions need not be identical. Identical values can stand only once. Like-named read-outs stand apart in the source and are kept apart here.
# Key:
# Type in all cases: in vivo
# [1] = test system: corn; settings: post-emergence
# Method: (§1) The herbicidal activity of the active substances or active substance mixtures was scored visually with the aid of the treated parcels in comparison with untreated control parcels. Damage to and development of all above-ground parts of plants was recorded here. Scoring was carried out on a percentage scale (100% action=all plants died; 50% action=50% of the plants and green plant parts died; 0% action=no discernible action=like control parcels. The mean of the scoring values of 4 parcels in each case was taken.
# (§2) Crop plants were raised outdoors under natural outdoor conditions on plots in which seeds or rhizome sections of typical harmful plants had been sown or the natural weed infestation was used. The treatment with the compositions according to the invention was carried out after the emergence of the harmful plants and the crop plants, as a rule in the 2 to 4-leaf stage; in some cases (as indicated) the application of individual active substances or active substance combinations was carried out pre-emergence (cf. Example 1) or as a sequence treatment, in some cases pre-emergence and/or post-emergence.
# (§3) After the application, e.g. 2, 4, 6 and 8 weeks after application, the action of the preparations was scored visually in comparison with untreated controls (cf. score in Example 1). […] The crop plants, however, were not damaged or were only insignificantly damaged as a result of the treatment with the herbicidal compositions.
# [2] = test system: Digitaria sanguinalis; experiment: Herbicidal action, visual scoring; settings: post-emergence, scoring 4 weeks after application
# Method: as §1
# (§4) Seeds or rhizome pieces of monocotyledonous and dicotyledonous weeds are placed in sandy loam soil in pots, covered with soil and grown in the greenhouse under good growth conditions (temperature, humidity, water supply). Three weeks after sowing, the test plants in the three-leaf stage are treated with the compositions according to the invention. The compositions according to the invention which are formulated as wettable powders or as emulsion concentrates are sprayed in various dosages on the green parts of the plants at an application rate of 600 to 800 l of water/ha (converted). After the test plants have remained in the greenhouse for about 3 to 4 weeks under optimal growth conditions, the effect of the products is scored visually by comparison with untreated controls. When applied post-emergence, too, the compositions according to the invention have a good herbicidal activity against a broad spectrum of economically important grass weeds and broad-leaved weeds.
# as §2, §3
# [3] = test system: CHEAL = Chenopodium album; experiment: Herbicidal action, visual scoring; settings: Table 9, post-emergence, scoring 3 weeks after application, g of A.S./ha by row: r6 120, r7 60, r8 30, r9 15, r10 60, r11 30, r12 15, r13 30 + 30, r14 15 + 30, r15 30 + 15, r16 2000, r17 1000, r18 500, r19 30 + 1000, r20 15 + 1000, r21 30 + 500
# Method: as §1, §4, §2, §3
# [4] = test system: Ipomoea purpurea; experiment: Herbicidal action, visual scoring; settings: Table 1, post-emergence, scoring 3 weeks after application, g of A.S./ha: 45, 60, 75, 1000, 2000, 3000, 75 + 1000
# Method: as §1, §4, §2, §3
# [5] = test system: POLCO = Polygonum convolvulus; experiment: Herbicidal action, visual scoring; settings: Table 15; post-emergence; scoring 4 weeks after application; g of A.S./ha by row: r6 30, r7 15, r8 7.5, r9 900, r10 450, r12 600, r14 20, r16 30 + 450, r17 7.5 + 900, r18 30 + 600, r19 7.5 + 600, r20 15 + 20, r21 7.5 + 20
# Method: as §1, with “taken. […]” for “taken.”
# as §2, §3
# [6] = test system: SOLNI; experiment: Herbicidal action, visual scoring; settings: Table 10, post-emergence, scoring 3 weeks after application, g of A.S./ha by row: r7 120, r8 60, r9 30, r10 15, r11 12, r12 6, r13 3, r14 30 + 6, r16 15 + 6, r18 30 + 3
# Method: as §1, §4, §2, §3
# [7] = Table 9, scoring 3 weeks after application, g of A.S./ha by row: r6 120, r7 60, r8 30, r9 15, r10 60, r11 30, r12 15, r13 30 + 30, r14 15 + 30, r15 30 + 15, r16 2000, r17 1000, r18 500, r19 30 + 1000, r20 15 + 1000, r21 30 + 500
compound,measurement,setting,value
"CCc1cccc(CC)c1N(COC)C(=O)CCl [(B1.1.1), alachlor]",Damage on corn,"[1]; Table 17, scoring 4 weeks after application, g of A.S./ha by row: r6 60, r7 30, r8 15, r9 2000, r10 1000, r11 500, r12 15 + 1000, r13 30 + 500, r14 2000, r15 1000, r16 500, r17 30 + 500, r18 15 + 500, r19 15 + 1000",0%
same,Herbicidal action Digitaria sanguinalis,"[2]; Table 17, g of A.S./ha by row: r6 60, r7 30, r8 15, r9 2000, r10 1000, r11 500, r12 15 + 1000, r13 30 + 500, r14 2000, r15 1000, r16 500, r17 30 + 500, r18 15 + 500, r19 15 + 1000, 500 g A.S./ha",40%
same,Herbicidal action Digitaria sanguinalis,"[2]; Table 17, g of A.S./ha by row: r6 60, r7 30, r8 15, r9 2000, r10 1000, r11 500, r12 15 + 1000, r13 30 + 500, r14 2000, r15 1000, r16 500, r17 30 + 500, r18 15 + 500, r19 15 + 1000, 1000 g A.S./ha",50%
same,Herbicidal action Digitaria sanguinalis,"[2]; Table 17, g of A.S./ha by row: r6 60, r7 30, r8 15, r9 2000, r10 1000, r11 500, r12 15 + 1000, r13 30 + 500, r14 2000, r15 1000, r16 500, r17 30 + 500, r18 15 + 500, r19 15 + 1000, 2000 g A.S./ha",65%
"CCc1cccc(C)c1N(C(=O)CCl)C(C)COC (stereo not shown) [(B1.1.2), metolachlor]",Damage on corn,[1]; [7],0%
same,Herbicidal action CHEAL,[3],0%
"CCNc1nc(Cl)nc(NC(C)C)n1 [(B1.2.1), atrazine]",Damage on corn,"[1]; Table 1, scoring 3 weeks after application, g of A.S./ha: 45, 60, 75, 1000, 2000, 3000, 75 + 1000",0%
same,Herbicidal action against Ipomoea purpurea,[4]; 1000 g active substance per ha,70%
same,Herbicidal action against Ipomoea purpurea,[4]; 2000 g active substance per ha,85%
same,Herbicidal action against Ipomoea purpurea,[4]; 3000 g active substance per ha,90%
"CCNc1nc(Cl)nc(NC(C)(C)C#N)n1 [(B1.2.3), cyanazine]",Damage on corn,"[1]; Table 14, scoring 4 weeks after application, g of A.S./ha by row: r6 30, r7 15, r8 7.5, r9 2200, r10 1100, r11 550, r12 7.5 + 2200, r13 7.5 + 1100",12% and 5% and 15%
"CC(C)N(C(=O)COc1nnc(C(F)(F)F)s1)c1ccc(F)cc1 [(B1.2.7), fluthiamid]",Damage on corn,"[1]; Table 15, scoring 4 weeks after application, g of A.S./ha by row: r6 30, r7 15, r8 7.5, r9 900, r10 450, r12 600, r14 20, r16 30 + 450, r17 7.5 + 900, r18 30 + 600, r19 7.5 + 600, r20 15 + 20, r21 7.5 + 20",0%
same,Herbicidal action Polygonum convolvulus,[5],25%
"COc1cc(OC)nc(NC(=O)NS(=O)(=O)c2ncccc2C(=O)N(C)C)n1 [(B1.3.1), nicosulfuron]",Damage on corn,[1]; [7],0%
same,Herbicidal action CHEAL,[3]; 15 g active substance/ha,55%
same,Herbicidal action CHEAL,[3]; 30 g active substance/ha,65%
same,Herbicidal action CHEAL,[3]; 60 g active substance/ha,90%
"CCS(=O)(=O)c1cccnc1S(=O)(=O)NC(=O)Nc1nc(OC)cc(OC)n1 [(B1.3.2), rimsulfuron]",Herbicidal action SOLNI,[6]; 3 g active substance per ha,35%
same,Herbicidal action SOLNI,[6]; 6 g active substance per ha,45%
same,Herbicidal action SOLNI,[6]; 12 g active substance per ha,60%
"CS(=O)(=O)c1ccc(C(=O)C2C(=O)CCCC2=O)c(Cl)c1 [(B1.4.2), sulcotrione]",Damage on corn,"[1]; Table 11, scoring 3 weeks after application, g of A.S./ha by row: r6 120, r7 60, r8 30, r9 15, r10 2000, r11 1000, r12 500, r13 30 + 1000, r14 15 + 1000, r15 30 + 500, r16 600, r17 300, r18 150, r19 30 + 300, r20 15 + 300, r21 30 + 150",0%
"CS(=O)(=O)c1cc(Cl)ccc1C(=O)c1cnoc1C1CC1 [(B1.4.6), isoxachlortole]",Damage on corn,"[1]; Table 18, scoring 4 weeks after application, g of A.S./ha by row: r6 45, r7 22.5, r8 12.5, r9 25, r12 12.5 + 25, r13 12.5 + 12.5",12%
same,Herbicidal action Digitaria sanguinalis,"[2]; Table 18, g of A.S./ha by row: r6 45, r7 22.5, r8 12.5, r9 25, r10 12.5, r12 12.5 + 25, r13 12.5 + 12.5, 12.5 g of A.S./ha",30%
same,Herbicidal action Digitaria sanguinalis,"[2]; Table 18, g of A.S./ha by row: r6 45, r7 22.5, r8 12.5, r9 25, r10 12.5, r12 12.5 + 25, r13 12.5 + 12.5, 25 g of A.S./ha",45%
"COc1cc(OC)n2nc(S(=O)(=O)Nc3c(Cl)ccc(C)c3Cl)nc2n1 [(B1.5.1), metosulam]",Herbicidal action Polygonum convolvulus,[5],55%
"O=C(O)c1nc(Cl)ccc1Cl [(B2.3.6), clopyralid]",Damage on corn,"[1]; Table 19, scoring 3 weeks after application, g of A.S./ha by row: r6 60, r7 30, r8 15, r9 120, r10 60, r11 30, r12 30 + 30, r13 30 + 60, r14 60 + 30",0% and 3%
"COc1nc(NC(=O)NS(=O)(=O)c2ccccc2C(F)(F)F)nc(C(F)(F)F)n1 [(B2.4.5), tritosulfuron]",Damage on corn,"[1]; Table 7, scoring 3 weeks after application, g of A.S./ha by row: r6 15, r7 30, r8 45, r9 60, r10 2.5, r11 5, r12 15 + 2.5, r13 15 + 5",1%
"Cc1cc(Cl)ccc1OCC(=O)O [(B2.5.2), MCPA]",Damage on corn,"[1]; Table 16, scoring 4 weeks after application, g of A.S./ha: 60, 30, 15, 1500, 750, 375, 30 + 750, 30 + 375, 15 + 750, 60 + 375",6% and 0% and 10%
